In patent US20250179051A1, “PYRIMIDINLY-OXY-QUINOLINE BASED HERBICIDAL COMPOUNDS” (SYNGENTA CROP PROTECTION AG, priority 2022, published 2025):

Legend:
Assay type in all cases: in vivo
Settings in all cases: 250 g/ha, evaluated after 13 days, five-point scale
[1] = tested on: Amaranthus palmeri (AMAPA); test: Post-emergence herbicide glasshouse test
Protocol: (§1) Seeds of a variety of test species are sown in standard soil in pots Amaranthus retoflexus (AMARE), Amaranthus palmeri (AMAPA), Echinochloa crus-galli (ECHCG), Ipomoea hederacea (IPOHE), Setaria faberi (SETFA). After cultivation for one day (pre-emergence) or after 8 days cultivation (post-emergence) under controlled conditions in a glasshouse (at 24/16° C., day/night; 14 hours light; 65% humidity), the plants are sprayed with an aqueous spray solution derived from the formulation of the technical active ingredient in acetone/water (50:50) solution containing 0.5% Tween 20 (polyoxyethelyene sorbitan monolaurate, CAS RN 9005-64-5). Compounds are applied at 250 g/ha unless otherwise stated. The test plants are then grown in a glasshouse under controlled conditions in a glasshouse (at 24/16° C., day/night; 14 hours light; 65% humidity) and watered twice daily. After 13 days for pre and post-emergence, the test is evaluated for the percentage damage caused to the plant. The biological activities are shown in the following table on a five-point scale (5=81-100%; 4=61-80%; 3=41-60%; 2=21-40%; 1=0-20%).

[2] = tested on: Amaranthus retoflexus (AMARE); test: Post-emergence herbicide glasshouse test
Protocol: as §1

[3] = tested on: Echinochloa crus-galli (ECHCG); test: Post-emergence herbicide glasshouse test
Protocol: as §1

[4] = tested on: Ipomoea hederacea (IPOHE); test: Post-emergence herbicide glasshouse test
Protocol: as §1

Setaria faberi (SETFA) [5] = test: Post-emergence herbicide glasshouse test
Protocol: as §1

[6] = tested on: Amaranthus palmeri (AMAPA); test: Pre-emergence herbicide glasshouse test
Protocol: as §1

[7] = tested on: Amaranthus retoflexus (AMARE); test: Pre-emergence herbicide glasshouse test
Protocol: as §1

[8] = tested on: Echinochloa crus-galli (ECHCG); test: Pre-emergence herbicide glasshouse test
Protocol: as §1

[9] = tested on: Ipomoea hederacea (IPOHE); test: Pre-emergence herbicide glasshouse test
Protocol: as §1

Setaria faberi (SETFA) [10] = test: Pre-emergence herbicide glasshouse test
Protocol: as §1

Cn1nc(-c2nc(C(F)(F)F)nc3cccc(Oc4ncc(Cl)cn4)c23)cc1C(F)F [Compound 1.016, 5-(5-chloropyrimidin-2-yl)oxy-4-[5-(difluoromethyl)-1-methyl-pyrazol-3-yl]-2-(trifluoromethyl)quinazoline]
2 (2=21-40%): percentage damage caused to the plant, AMAPA [1] | percentage damage caused to the plant, AMARE [2] | percentage damage caused to the plant, IPOHE [4] | percentage damage caused to the plant, AMAPA [6]
1 (1=0-20%): percentage damage caused to the plant, ECHCG [3] | percentage damage caused to the plant, SETFA (Setaria faberi (SETFA) [5]) | percentage damage caused to the plant, AMARE [7] | percentage damage caused to the plant, ECHCG [8] | percentage damage caused to the plant, IPOHE [9] | percentage damage caused to the plant, SETFA (Setaria faberi (SETFA) [10])

CC(=O)N1CCC(CCc2nc(C(F)(F)F)nc3cccc(Oc4ncc(Cl)cn4)c23)CC1 [Compound 1.034]
3 (3=41-60%): percentage damage caused to the plant, AMAPA [6]
1 (1=0-20%): percentage damage caused to the plant, IPOHE [9]
5 (5=81-100%): percentage damage caused to the plant, AMARE [2] | percentage damage caused to the plant, SETFA (Setaria faberi (SETFA) [5])
2 (2=21-40%): percentage damage caused to the plant, IPOHE [4] | percentage damage caused to the plant, AMARE [7] | percentage damage caused to the plant, ECHCG [8]
4 (4=61-80%): percentage damage caused to the plant, AMAPA [1] | percentage damage caused to the plant, ECHCG [3] | percentage damage caused to the plant, SETFA (Setaria faberi (SETFA) [10])

C=CCON=CCCc1nc(C(F)(F)F)nc2cccc(Oc3ncc(Cl)cn3)c12 [Compound 1.067]
5 (5=81-100%): percentage damage caused to the plant, AMAPA [1] | percentage damage caused to the plant, SETFA (Setaria faberi (SETFA) [5]) | percentage damage caused to the plant, AMAPA [6] | percentage damage caused to the plant, ECHCG [8] | percentage damage caused to the plant, SETFA (Setaria faberi (SETFA) [10])
3 (3=41-60%): percentage damage caused to the plant, IPOHE [4] | percentage damage caused to the plant, AMARE [7]
4 (4=61-80%): percentage damage caused to the plant, AMARE [2] | percentage damage caused to the plant, ECHCG [3]
1 (1=0-20%): percentage damage caused to the plant, IPOHE [9]

OCC(O)CCc1nc(C(F)(F)F)nc2cccc(Oc3ncc(Cl)cn3)c12 (stereo not shown) [Compound 1.037, 4-[5-(5-chloropyrimidin-2-yl)oxy-2-(trifluoromethyl)quinazolin-4-yl]butane-1,2-diol]
1 (1=0-20%): percentage damage caused to the plant, ECHCG [3] | percentage damage caused to the plant, IPOHE [4] | percentage damage caused to the plant, SETFA (Setaria faberi (SETFA) [5]) | percentage damage caused to the plant, AMAPA [6] | percentage damage caused to the plant, AMARE [7] | percentage damage caused to the plant, ECHCG [8] | percentage damage caused to the plant, IPOHE [9] | percentage damage caused to the plant, SETFA (Setaria faberi (SETFA) [10])
3 (3=41-60%): percentage damage caused to the plant, AMAPA [1] | percentage damage caused to the plant, AMARE [2]

FC(F)(F)c1nc(CCCC2CC2)c2c(Oc3ncc(Cl)cn3)cccc2n1 [Compound 1.019]
5 (5=81-100%): percentage damage caused to the plant, AMAPA [1] | percentage damage caused to the plant, AMARE [2] | percentage damage caused to the plant, SETFA (Setaria faberi (SETFA) [5]) | percentage damage caused to the plant, AMAPA [6] | percentage damage caused to the plant, SETFA (Setaria faberi (SETFA) [10])
4 (4=61-80%): percentage damage caused to the plant, AMARE [7] | percentage damage caused to the plant, ECHCG [8]
3 (3=41-60%): percentage damage caused to the plant, IPOHE [4]
2 (2=21-40%): percentage damage caused to the plant, ECHCG [3]
1 (1=0-20%): percentage damage caused to the plant, IPOHE [9]

CC(=NOCC1CC1)c1nc(C(F)(F)F)nc2cccc(Oc3ncc(Cl)cn3)c12 [Compound 1.065]
1 (1=0-20%): percentage damage caused to the plant, ECHCG [3] | percentage damage caused to the plant, IPOHE [4] | percentage damage caused to the plant, SETFA (Setaria faberi (SETFA) [5]) | percentage damage caused to the plant, AMAPA [6] | percentage damage caused to the plant, AMARE [7] | percentage damage caused to the plant, ECHCG [8] | percentage damage caused to the plant, IPOHE [9] | percentage damage caused to the plant, SETFA (Setaria faberi (SETFA) [10])
2 (2=21-40%): percentage damage caused to the plant, AMAPA [1] | percentage damage caused to the plant, AMARE [2]

FC(F)(F)c1nc(CC=NOCC2CC2)c2c(Oc3ncc(Cl)cn3)cccc2n1 [Compound 1.008, 2-[5-(5-chloropyrimidin-2-yl)oxy-2-(trifluoromethyl)quinazolin-4-yl]-N-(cyclopropylmethoxy) ethanimine]
2 (2=21-40%): percentage damage caused to the plant, ECHCG [3] | percentage damage caused to the plant, AMAPA [6]
4 (4=61-80%): percentage damage caused to the plant, AMAPA [1] | percentage damage caused to the plant, AMARE [2]
1 (1=0-20%): percentage damage caused to the plant, IPOHE [4] | percentage damage caused to the plant, SETFA (Setaria faberi (SETFA) [5]) | percentage damage caused to the plant, AMARE [7] | percentage damage caused to the plant, ECHCG [8] | percentage damage caused to the plant, IPOHE [9] | percentage damage caused to the plant, SETFA (Setaria faberi (SETFA) [10])

FC(F)(F)c1nc(C2CC2)c2c(Oc3ncc(Cl)cn3)cccc2n1 [Compound 1.041, 5-(5-chloropyrimidin-2-yl)oxy-4-cyclopropyl-2-(trifluoromethyl)quinazoline]
5 (5=81-100%): percentage damage caused to the plant, AMAPA [1] | percentage damage caused to the plant, AMARE [2] | percentage damage caused to the plant, SETFA (Setaria faberi (SETFA) [5]) | percentage damage caused to the plant, AMAPA [6] | percentage damage caused to the plant, SETFA (Setaria faberi (SETFA) [10])
1 (1=0-20%): percentage damage caused to the plant, IPOHE [9]
2 (2=21-40%): percentage damage caused to the plant, IPOHE [4] | percentage damage caused to the plant, AMARE [7]
3 (3=41-60%): percentage damage caused to the plant, ECHCG [3] | percentage damage caused to the plant, ECHCG [8]

FC(F)(F)c1nc(-c2ncccn2)c2c(Oc3ncc(Cl)cn3)cccc2n1 [Compound 1.069]
1 (1=0-20%): percentage damage caused to the plant, AMAPA [1] | percentage damage caused to the plant, AMARE [2] | percentage damage caused to the plant, ECHCG [3] | percentage damage caused to the plant, IPOHE [4] | percentage damage caused to the plant, SETFA (Setaria faberi (SETFA) [5]) | percentage damage caused to the plant, AMAPA [6] | percentage damage caused to the plant, AMARE [7] | percentage damage caused to the plant, ECHCG [8] | percentage damage caused to the plant, IPOHE [9] | percentage damage caused to the plant, SETFA (Setaria faberi (SETFA) [10])

O=CCCc1nc(C(F)(F)F)nc2cccc(Oc3ncc(Cl)cn3)c12 [Compound 1.038, 3-[5-(5-chloropyrimidin-2-yl)oxy-2-(trifluoromethyl)quinazolin-4-yl]propanal]
1 (1=0-20%): percentage damage caused to the plant, ECHCG [3] | percentage damage caused to the plant, SETFA (Setaria faberi (SETFA) [5]) | percentage damage caused to the plant, AMAPA [6] | percentage damage caused to the plant, ECHCG [8] | percentage damage caused to the plant, IPOHE [9] | percentage damage caused to the plant, SETFA (Setaria faberi (SETFA) [10])
2 (2=21-40%): percentage damage caused to the plant, AMARE [7]
3 (3=41-60%): percentage damage caused to the plant, AMAPA [1] | percentage damage caused to the plant, IPOHE [4]
4 (4=61-80%): percentage damage caused to the plant, AMARE [2]

O=C(c1ccncc1)c1nc(C(F)(F)F)nc2cccc(Oc3ncc(Cl)cn3)c12 [Compound 1.036]
4 (4=61-80%): percentage damage caused to the plant, AMAPA [6]
3 (3=41-60%): percentage damage caused to the plant, AMAPA [1] | percentage damage caused to the plant, AMARE [2] | percentage damage caused to the plant, AMARE [7] | percentage damage caused to the plant, ECHCG [8] | percentage damage caused to the plant, SETFA (Setaria faberi (SETFA) [10])
1 (1=0-20%): percentage damage caused to the plant, ECHCG [3] | percentage damage caused to the plant, IPOHE [4] | percentage damage caused to the plant, SETFA (Setaria faberi (SETFA) [5]) | percentage damage caused to the plant, IPOHE [9]

O=C(c1ccccn1)c1nc(C(F)(F)F)nc2cccc(Oc3ncc(Cl)cn3)c12 [Compound 1.029, [5-(5-chloropyrimidin-2-yl)oxy-2-(trifluoromethyl)quinazolin-4-yl]-(2-pyridyl) methanone]
1 (1=0-20%): percentage damage caused to the plant, AMAPA [1] | percentage damage caused to the plant, AMARE [2] | percentage damage caused to the plant, ECHCG [3] | percentage damage caused to the plant, IPOHE [4] | percentage damage caused to the plant, SETFA (Setaria faberi (SETFA) [5]) | percentage damage caused to the plant, AMAPA [6] | percentage damage caused to the plant, AMARE [7] | percentage damage caused to the plant, ECHCG [8] | percentage damage caused to the plant, IPOHE [9] | percentage damage caused to the plant, SETFA (Setaria faberi (SETFA) [10])

CON=CCc1nc(C(F)(F)F)nc2cccc(Oc3ncc(Cl)cn3)c12 [Compound 1.007]
2 (2=21-40%): percentage damage caused to the plant, AMAPA [1] | percentage damage caused to the plant, AMARE [2]
1 (1=0-20%): percentage damage caused to the plant, ECHCG [3] | percentage damage caused to the plant, IPOHE [4] | percentage damage caused to the plant, SETFA (Setaria faberi (SETFA) [5]) | percentage damage caused to the plant, AMAPA [6] | percentage damage caused to the plant, AMARE [7] | percentage damage caused to the plant, ECHCG [8] | percentage damage caused to the plant, IPOHE [9] | percentage damage caused to the plant, SETFA (Setaria faberi (SETFA) [10])
